Measurements from patent publication US11434255B2, “Nucleoside and nucleotide analogues bearing a quaternary all-carbon stereogenic center at the 2′ position and methods of use as a cardioprotective agent” (LCB PHARMA INC., priority 2016, dated 2022).
Like-named read-outs stand apart in the source and are kept apart here.

Tests used:
primary cardiomyocytes [1] = assay: TUNEL assay, DOX-induced apoptosis in primary cardiomyocyte monolayers; type: cell-based
Protocol: (§1) Primary cardiomyocyte monologues covered by serum free media (SF) were treated with DMSO (vehicle), Doxorubicin (DOX) (300 nM), Imatinib (Imat) (5 μM), and/or LCB2122 at varying concentrations (0.1, 0.5, 1.5 at 10 μM) diluted in SF for 3, 6, 18 or 24 hours. The TUNEL assay (Terminal Deoxynucleotidyltransferase mediated dUTP End Labeling) was utilized to detect apoptotic nuclei using an Apop Tag Red in Situ Apoptosis Detection Kit (Millipore, Temecula, Calif.). A Zeis fluorescent microscope was used for image acquisition. Cell counting was done using the Imager® Software.

primary cardiomyocytes [2] = assay: TUNEL assay, Imatinib-induced apoptosis in primary cardiomyocytes; type: cell-based; settings: Cardiomyocyte, 6 hours, FIG. 6, read-out: EC50, prevention of apoptosis induced by Imatinib
Protocol: as §1

[3] = tested on: atrial natriuretic factor (ANF); assay: ANF ELISA on blood plasma of WT and AT1R mice; type: in vivo; settings: 2.0 μg/Kg/day, 4 weeks, FIG. 13b
Protocol: FIG. 13b) quantification of an ANF ELISA assay done on blood plasma samples from vehicle and LCB2122 (2.0 μg/Kg/day, 4 weeks) treated WT and AT1R mice ventricles. Once again, the increase in ANF plasma levels was attenuated in the LCB2122 treated AT1R mice.

cardiomyocytes = assay: Sarcomeric alpha-actinin immunofluorescence on cardiomyocytes; type: cell-based; settings: 5 uM, six hours, FIG. 7
Protocol: Immunofluorescence were performed on cardiomyocytes as previously described,^16 using a sarcomeric alpha-Actinin antibody (1/500).
FIG. 7 is a micrograph showing α-actinin immunostaining (straight lines) of 2% PFA-fixed cardiomyocytes treated with a) vehicle (DMSO) or b) LCB2122 (5 uM) for six hours. […] White spots mark the nuclei.

primary cardiomyocytes [4] = assay: TUNEL assay, primary cardiomyocytes treated with 3 μM Doxorubicin for 6 hours (Table 1); type: cell-based; settings: Cardiomyocyte
Protocol: as §1
The cardioprotective profile of LCB2122, LC2165, LCB2191 and LCB2177 were also investigated. As above, primary cardiomyocytes were treated with 3 μM of Doxorubicin for 6 hours alone or with the above compounds of the invention. The TUNEL assay was utilized to detect apoptotic nuclei. […] LCB2165, LCB2191 and LCB2177 were also active with IC50's of 5 μM.

heart cardiomyocytes = assay: TUNEL assay on heart sections of DOX-treated mice; type: in vivo; settings: after 2 weeks, FIG. 11
Protocol: (§2) Mice were handled in accordance with institutional guidelines for animal care. Experiments were approved by the institutional Animal Care Committees and the investigation conforms with the Guide for the Care and Use of Laboratory Animals published by the US National Institutes of Health (NIH Publication N. 85-23, revised 1985). Doxorubicin treatment was a single ip injection of 5 or 15 mg/kg as previously described by Aries et al.^6 ALZET micro-osmotic pumps (Model 1002, 0.25 μl/hr, 14 days) were filled with DMSO, Ang II (0.5 μgKg/day) LCB2122 (2.0 or 2.8 μg/Kg/day) diluted in normal saline and inserted subcutaneously in mice for two weeks. M-mode echocardiography was performed using Visual-Sonics VEVO 2100 system and 30-MHz linear array transducer, on lightly anesthetized mice using […], 80 ml/min of 100% oxygen, as described by Aries et al. and echocardiographic indices were calculated as described by Yang et al.^17 Heart failure was defined as EF<45%.
After these 2 weeks, heart cardiomyocytes were also tested by TUNEL assay (on heart sections).

[5] = tested on: wild type mice, DOX-induced toxicity; assay: In vivo echocardiography in DOX-treated mice
Protocol: as §2

[6] = tested on: HepG2 human cancer cell line; assay: Cell Titer Glo growth inhibition, DOX +/- LCB2122; type: cell-based
Text: Indeed, the IC50 of DOX in HepG2 human cancer cell line was identical in the absence or presence of LCB2122. FIG. 8 is a plot representing the percent growth inhibition as measured by Cell Titer Glo assays done on HepG2 cells treated with varying concentrations of DOX+/−LCB-2122 ([…]).

[7] = tested on: atrial natriuretic factor (ANF); assay: ANF transcript QPCR on ventricles of WT and AT1R mice; type: in vivo; settings: 2.0 μg/Kg/day, 4 weeks, FIG. 13a
Text: The massive ANF upregulation seen in AT1R mice usually indicative of cardiac stress is attenuated in LCB2122 treated AT1R mice.

AT1R mice = assay: Echocardiography in AT1R transgenic (heart failure model) and wild-type mice; type: in vivo
Protocol: as §2
Transgenic mice overexpressing the human angiotensin II type 1 receptor^7 (AT1R) under the control of the mouse α-myosin heavy chain were generated. These mice are a model of human HF. Cardiomyocyte specific overexpression induced in basal conditions overtime, morphologic changes that mimic those observed during the development of cardiac hypertrophy in humans. In order words, these mice develop age-dependent HF.
All AT1R mice had EF % less than 40%, similar to HF patients in human. […] LCB2122 treated AT1R mice (2.0 μg/kg/day for 4 weeks) had their cardiac functions improved as opposed to untreated mice. […] The data shown are the individual values of each mouse at weeks 0 and 4. All WT mice had normal EF % independent of LCB2122 treatment throughout the study. All AT1R mice were in HF prior to any treatment.

`CCOP(=O)(OCC)OC[C@H]1O[C@@H](n2cnc3c(N)nc(Cl)nc32)[C@](C)(CO)[C@@H]1O` [LCB2122, ((2R,3S,4R,5R)-5-(6-amino-2-chloro-9H-purin-9-yl)-3-hydroxy-4-(hydroxymethyl)-4-methyltetrahydrofuran-2-yl)methyl diethyl phosphate] was tested, and the EC50 (primary cardiomyocytes [1]; Cardiomyocyte, DOX 300 nM, TUNEL, FIG. 4, read-out: EC50, prevention of DOX-induced apoptotic cell death) was 0.5 µM, the “prevention of DOX-induced apoptotic cell death” value (primary cardiomyocytes [1]; DOX 300 nM, 6 hours, FIGS. 3 and 4) was “completely prevented DOX-induced apoptotic cell death” and the “DOX-induced apoptosis over time” value (primary cardiomyocytes [1]; DOX 300 nM, at 3, 6 or 24 hours) was “blocked”. For the same compound, the “induction of apoptosis by the compound alone” value (primary cardiomyocytes [1]; time course, any time points, FIG. 5) was “did not induce apoptosis”, the EC50 (primary cardiomyocytes [2]) was 5 µM and the “increase in ANF plasma levels” value [3] was “attenuated”. For the same compound, the “cytoskeletal organization and cell size (α-actinin immunostaining)” value (cardiomyocytes) was “does not alter cytoskeletal organization or cell size”, the IC50 (primary cardiomyocytes [4]; 6 h) was 1 µM and the “apoptotic cardiomyocytes (TUNEL, heart sections)” value (heart cardiomyocytes) was “significant decrease of apoptotic cardiomyocytes”. The “ejection fraction (EF, %) after DOX” value ([5]; DOX ip, LCB2122 micropump for two weeks, FIG. 9) was “protected against DOX-induced toxicity”, the “left ventricle wall thickness after DOX” value ([5]; wild type mice, DOX, FIG. 10) was “protected against this DOX-induced wall thickness” and the “effect on antiproliferative effect of DOX” value ([6]; HepG2, DOX +/- LCB2122, FIG. 8) was “did not affect the antiproliferative effect of DOX”. The “effect on HepG2 sensitivity to DOX” value ([6]; up to 4 μM LCB2122) was “no effect on HepG2 sensitivity to DOX”, the “ANF transcript upregulation in ventricles” value [7] was “attenuated” and the “cardiac function (ejection fraction) in AT1R mice” value (AT1R mice; 2.0 μg/kg per day for 4 weeks, FIG. 12) was “significant improvement of the cardiac function”. For the same compound, the “cardiac function of normal (WT) mice” value (AT1R mice; 2.0 μg/kg/day for 4 weeks) was “did not alter cardiac function of normal mice” and the “share of treated AT1R mice with EF % equal and above 40%” value (AT1R mice; after four weeks of LCB2122) was 55%.

Work on `C#CCOc1ccc(C(=O)c2ccc(C(=O)OC[C@]3(C)[C@H](O)[C@@H](COP(=O)(OCC)OCC)O[C@H]3n3cnc4c(N)nc(Cl)nc43)cc2)cc1` [LCB2191, ((2R,3R,4S,5R)-2-(6-amino-2-chloro-9H-purin-9-yl)-5-(((diethoxyphosphoryl)oxy)methyl)-4-hydroxy-3-methyltetrahydrofuran-3-yl)methyl 4-(4-(prop-2-yn-1-yloxy)benzoyl)benzoate] yielded an IC50 (primary cardiomyocytes [4]; 6 h) of 5 µM.

In the case of `CC(C)OP(=O)(OC[C@H]1O[C@@H](n2cnc3c(N)nc(Cl)nc32)[C@](C)(CO)[C@@H]1O)OC(C)C` [LCB2177, ((2R,3S,4R,5R)-5-(6-amino-2-chloro-9H-purin-9-yl)-3-hydroxy-4-(hydroxymethyl)-4-methyltetrahydrofuran-2-yl)methyl diisopropyl phosphate], the IC50 (primary cardiomyocytes [4]; 3 μM Doxorubicin, 6 hours, TUNEL apoptotic nuclei, read-out: IC50) is reported as 5 µM.

With `CCOP(=O)(OCC)OC[C@H]1O[C@@H](n2cnc3c(N)nc(Cl)nc32)[C@](C)(COCc2ccccc2)[C@@H]1O` [LCB2165, ((2R,3S,4R,5R)-5-(6-amino-2-chloro-9H-purin-9-yl)-4-((benzyloxy)methyl)-3-hydroxy-4-methyltetrahydrofuran-2-yl)methyl diethyl phosphate] the IC50 (primary cardiomyocytes [4]; 6 h) was 5 µM.

In the case of `COc1cccc2c1C(=O)c1c(O)c3c(c(O)c1C2=O)C[C@@](O)(C(=O)CO)C[C@@H]3O[C@H]1C[C@H](N)[C@H](O)[C@H](C)O1` [DOX, Doxorubicin, reference compound], the “ejection fraction (EF, %) after DOX alone” value ([5]; mice, two weeks after DOX ip injection, FIG. 9) is reported as “decreased significantly” and the “ventricular wall thickness after DOX alone” value ([5]; wild type mice, DOX (5 μg/kg) as printed) is reported as “induced also a loss of ventricular wall thickness”.
